Results published in publication PMC3791872 (Bioscience Reports, 2013).
Like-named read-outs stand apart in the source and are kept apart here.

Experiments:
[1] = test system: T1, Mcm2-7; assay: ssDNA double filter-binding assay, Mcm2-7; parameters: species or system Saccharomyces cerevisiae; settings: 1 mM compound, 150 nM helicase
T1 construct: made in house; host or cells: baculovirus-infected insect cells

[2] = target: T2, Mcm467 (Saccharomyces cerevisiae, UniProt P30665+P38132+P53091); assay: ssDNA double filter-binding assay, Mcm467; settings: 1 mM compound, 150 nM helicase
T2 construct: made in house; host or cells: baculovirus-infected insect cells

[3] = target: T1, Mcm2-7; assay: Mcm2-7 helicase (DNA unwinding) assay; format: biochemical, Saccharomyces cerevisiae; settings: for IC50: DNA unwinding
[4] = target: T2, Mcm467; assay: Mcm467 helicase (DNA unwinding) assay; format: biochemical
[5] = target: SV40 large TAg (T-antigen) (Simian virus 40, UniProt P03070); assay: biochemical; parameters: species or system SV40 (simian virus 40); settings: for IC50: DNA unwinding
[6] = test system: S. cerevisiae ∆erg6 (UPY675); assay: Yeast growth inhibition, 96-well assay, ∆erg6 strain; format: cell-based, Saccharomyces cerevisiae; settings: for IC50: Saccharomyces cerevisiae, ∆erg6 strain, growth over 24 h, read-out: IC50 Yeast
[7] = test system: RPE-hTERT cells; assay: Human cell viability, MTS method; format: cell-based; settings: 48 h, value (95% CI)
Method: Ciproﬂoxacin is an inhibitor of the Mcm2-7 […]
The viability of human cells was assayed using the MTS method
[1]. Brieﬂy, 1 ×10^5 cells of the human non-tumour cell line RPE-hTERT were plated into each well of a 96-well plate and grown in DMEM: F12 containing 10 % (v/v) FBS in 5 % (v/v) CO2 at 37 ◦ C. The next day, the indicated compounds were titrated into media such that the ﬁnal concentration contained 1 % (v/v)
DMSO. As a negative control, media were also prepared that contained 1 % DMSO but lacked compound. After 48 h, the media was removed and replaced with DMEM lacking phenol red but containing Cell Titer 96 Aqueous One Solution Cell Proliferation
Assay (Promega). After 1 h, the A490 nm was measured using a BioRad iMark Microplate Reader (Hercules). Final data reﬂect the average and standard deviation (S.D.) of three replicates at each compound concentration. […]

[8] = test system: pUC19; assay: DNA intercalation assay (Topo I-relaxed plasmid); format: biochemical
Excerpt: To examine this model, we tested our inhibitors in a standard topoisomerase assay. The rationale of this assay is that intercalating compounds will introduce supercoils into a fully relaxed plasmid. Topo I will remove these introduced supercoils, but after quenching and gel electrophoresis the intercalator will diffuse away and produce a detectable compensatory supercoiling increase.

[9] = target: DnaB (Escherichia coli, UniProt P0ACB0); assay: DnaB helicase assay; format: biochemical; settings: 1 mM, Figure S3
Method: (§1) Helicase assays were performed essentially as described. Synthetic replication forks were prepared by annealing oligos 233 and 235 [IDT (Coralville), oligo 233 5′(T)40[…]; oligo 235 5′ […](T)40] and then filling in the recessed 3′-end with [α32P]dATP and unlabelled dNTPs using Klenow Fragment. Briefly, reactions ([…]) were performed in 1× helicase assay buffer [20 mM Tris/HCl (pH 7.5), 10 mM MgOAc, 20% (v/v) glycerol, 100 μM EDTA and 5 mM DTT (dithiothreitol)] and contained a final concentration of 1 nM fork substrate, 5 mM ATP, 40 mM creatine phosphate, […] creatine kinase, 33 μg/ml BSA. Reactions containing Mcm2-7 and Mcm467 were supplemented with 200 mM potassium glutamate. Reactions containing SsoMcm were incubated at 65°C, those containing T4 gp41 were incubated for 30 min at 37°C, and all other reactions were incubated at 37°C for 1 h. The products were separated by 10% (w/v) native PAGE, the resulting gels dried and the radioactivity quantified using a Fuji FLA-5100 phosphoimager. Irrespective of the protein used, all helicase assays contained equal molar helicase concentrations (100 nM, assuming in all cases that the active helicase form is hexameric). Steady-state ATP hydrolysis was assayed as published. In short, reactions were set up essentially as in the helicase assay, with minor exceptions. A non-radiolabelled DNA fork was used, helicase concentration was 100 nM (hexamer) the total ATP concentration was 500 μM and included ~0.5 μCi of [α32P]ATP, and the ATP regeneration system was omitted. Reactions were incubated for 1 h at 37°C and stopped by the addition of SDS. ATP was separated from ADP by PEI (polyethyleneimine) thin layer chromatography, and the ratio of ATP:ADP was quantified using a Fuji FLA-5100 phosphoimager. Based on our prior work, conditions were established to ensure that the results shown are within the linear range of the assay. Protein–ssDNA binding was determined with a double filter-binding assay using an ssDNA probe (oligo 826, 5′[…]) that was 5′-radiolabelled using T4 polynucleotide kinase and [γ32P]ATP [16]. For the double filter-binding assay, the helicase concentration was 150 nM (hexamer) and the ssDNA concentration was 4 nM. For all biochemical assays, helicases were preincubated with inhibitors for 20 min at 37°C unless otherwise indicated. […]
(§2) against different helicases
(§3) Representative helicase activity assays in the presence of the indicated inhibitor were tested, quantiﬁed and standardized as described in the legend to F igures 2 (A) and (B). All helicases were assayed at 100 nM
(§4) ﬁnal concentration (hexamer) with inhibitor preincubation prior to ATP […]
(§5) F igure S3 Ciproﬂoxacin poor ly inhibits hexameric helicases un- […]
(§6) All inhibitors were used at 1 mM ﬁnal concentration. […]

[10] = target: T3, T4 gp41 (Enterobacteria phage T4, UniProt P04530); assay: T4 gp41 helicase assay; format: biochemical; settings: 1 mM, Figure S3
T3 sequence (P04530 1-475): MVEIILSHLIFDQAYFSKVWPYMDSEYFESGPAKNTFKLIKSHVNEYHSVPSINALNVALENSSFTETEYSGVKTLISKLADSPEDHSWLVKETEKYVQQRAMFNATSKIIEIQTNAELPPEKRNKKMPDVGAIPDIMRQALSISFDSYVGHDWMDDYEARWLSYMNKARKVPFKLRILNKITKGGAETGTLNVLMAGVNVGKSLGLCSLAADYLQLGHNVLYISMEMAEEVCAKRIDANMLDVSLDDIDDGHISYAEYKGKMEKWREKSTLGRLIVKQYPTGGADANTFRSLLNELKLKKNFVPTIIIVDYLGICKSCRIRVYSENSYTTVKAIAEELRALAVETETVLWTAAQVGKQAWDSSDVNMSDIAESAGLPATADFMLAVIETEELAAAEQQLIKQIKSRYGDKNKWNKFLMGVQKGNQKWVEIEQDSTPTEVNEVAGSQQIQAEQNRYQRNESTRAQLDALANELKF
Method: as §1, §2, §3, §4, §5, §6

[11] = test system: T1, Mcm2-7; assay: Steady-state ATP hydrolysis by Mcm2-7; format: biochemical, Saccharomyces cerevisiae; settings: 1 mM compound, 100 nM hexamer
[12] = target: T2, Mcm467; assay: Steady-state ATP hydrolysis by Mcm467; format: biochemical; settings: 1 mM compound, 100 nM hexamer
[13] = target: T4, SV40 large TAg (Simian virus 40, UniProt P03070); assay: Steady-state ATP hydrolysis by TAg; format: biochemical, SV40 (simian virus 40); settings: 1 mM compound, 100 nM hexamer
T4 construct: made in house

[14] = target: T5, SsoMcm (Sulfolobus solfataricus Mcm protein) complex (Saccharolobus solfataricus, UniProt Q9UXG1); assay: SsoMcm helicase assay; format: biochemical; settings: 1 mM, 65°C, Figure S3
T5 sequence (Q9UXG1 1-686): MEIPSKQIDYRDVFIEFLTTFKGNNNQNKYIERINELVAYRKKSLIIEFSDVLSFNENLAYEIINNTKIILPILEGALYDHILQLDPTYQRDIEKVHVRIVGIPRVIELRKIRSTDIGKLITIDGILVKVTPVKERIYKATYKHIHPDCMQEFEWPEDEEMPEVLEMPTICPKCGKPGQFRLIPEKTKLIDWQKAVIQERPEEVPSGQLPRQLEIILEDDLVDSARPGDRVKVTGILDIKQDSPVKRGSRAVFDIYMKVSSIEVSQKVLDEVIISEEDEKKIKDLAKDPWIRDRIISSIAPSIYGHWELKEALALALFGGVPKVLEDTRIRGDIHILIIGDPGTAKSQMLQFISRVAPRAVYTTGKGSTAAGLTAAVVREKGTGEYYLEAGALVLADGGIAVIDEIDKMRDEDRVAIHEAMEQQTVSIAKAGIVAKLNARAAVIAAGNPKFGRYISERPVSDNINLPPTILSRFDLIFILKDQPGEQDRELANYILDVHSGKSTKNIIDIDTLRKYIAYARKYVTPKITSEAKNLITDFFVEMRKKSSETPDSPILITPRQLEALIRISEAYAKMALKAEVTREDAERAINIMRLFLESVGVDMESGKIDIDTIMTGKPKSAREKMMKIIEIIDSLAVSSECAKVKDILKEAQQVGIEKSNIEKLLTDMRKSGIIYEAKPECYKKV
Method: Helicase assays were performed essentially as described. Synthetic replication forks were prepared by annealing oligos 233 and 235 [IDT (Coralville), oligo 233 5′(T)40[…]; oligo 235 5′ […](T)40] and then filling in the recessed 3′-end with [α32P]dATP and unlabelled dNTPs using Klenow Fragment. Briefly, reactions ([…]) were performed in 1× helicase assay buffer [20 mM Tris/HCl (pH 7.5), 10 mM MgOAc, 20% (v/v) glycerol, 100 μM EDTA and 5 mM DTT (dithiothreitol)] and contained a final concentration of 1 nM fork substrate, 5 mM ATP, 40 mM creatine phosphate, […] creatine kinase, 33 μg/ml BSA. Reactions containing Mcm2-7 and Mcm467 were supplemented with 200 mM potassium glutamate. Reactions containing SsoMcm were incubated at 65°C, those containing T4 gp41 were incubated for 30 min at 37°C, and all other reactions were incubated at 37°C for 1 h. The products were separated by 10% (w/v) native PAGE, the resulting gels dried and the radioactivity quantified using a Fuji FLA-5100 phosphoimager. […] ATP was separated from ADP by PEI (polyethyleneimine) thin layer chromatography, and the ratio of ATP:ADP was quantified using a Fuji FLA-5100 phosphoimager. […] Protein–ssDNA binding was determined with a double filter-binding assay using an ssDNA probe (oligo 826, 5′[…]) that was 5′-radiolabelled using T4 polynucleotide kinase and [γ32P]ATP [16]. […]

[15] = 100 nM hexamer, inhibitor preincubation, […], read-out: IC50 T-antigen
[16] = 1 mM inhibitor added after plasmid relaxation (Figure 3C)
[17] = inhibitor at 2- to 3-fold over calculated helicase IC50 (Figure 3E)
[18] = 100 nM hexamer, inhibitor preincubation, value (95% CI), read-out: IC50 Mcm2-7
[19] = DNA unwinding, 100 nM hexamer, inhibitor preincubation, value (95% CI), read-out: IC50 Mcm467
[20] = any concentration tested, results not shown

DnaB, sequence (P0ACB0 whole entry, the tested form may be a part): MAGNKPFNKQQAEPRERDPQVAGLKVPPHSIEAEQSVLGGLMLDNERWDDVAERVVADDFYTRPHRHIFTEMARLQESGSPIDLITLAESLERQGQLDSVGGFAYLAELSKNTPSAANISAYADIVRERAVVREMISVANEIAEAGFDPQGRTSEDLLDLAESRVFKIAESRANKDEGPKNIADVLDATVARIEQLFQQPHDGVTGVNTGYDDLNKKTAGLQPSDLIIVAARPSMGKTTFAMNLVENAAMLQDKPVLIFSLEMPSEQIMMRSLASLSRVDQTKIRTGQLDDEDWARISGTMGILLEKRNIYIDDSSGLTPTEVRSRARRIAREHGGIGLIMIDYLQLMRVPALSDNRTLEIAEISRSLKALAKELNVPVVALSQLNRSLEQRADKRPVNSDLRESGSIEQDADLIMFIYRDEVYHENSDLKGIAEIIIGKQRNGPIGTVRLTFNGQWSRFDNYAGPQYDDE
SV40 large TAg (T-antigen), sequence (P03070 whole entry, looked up): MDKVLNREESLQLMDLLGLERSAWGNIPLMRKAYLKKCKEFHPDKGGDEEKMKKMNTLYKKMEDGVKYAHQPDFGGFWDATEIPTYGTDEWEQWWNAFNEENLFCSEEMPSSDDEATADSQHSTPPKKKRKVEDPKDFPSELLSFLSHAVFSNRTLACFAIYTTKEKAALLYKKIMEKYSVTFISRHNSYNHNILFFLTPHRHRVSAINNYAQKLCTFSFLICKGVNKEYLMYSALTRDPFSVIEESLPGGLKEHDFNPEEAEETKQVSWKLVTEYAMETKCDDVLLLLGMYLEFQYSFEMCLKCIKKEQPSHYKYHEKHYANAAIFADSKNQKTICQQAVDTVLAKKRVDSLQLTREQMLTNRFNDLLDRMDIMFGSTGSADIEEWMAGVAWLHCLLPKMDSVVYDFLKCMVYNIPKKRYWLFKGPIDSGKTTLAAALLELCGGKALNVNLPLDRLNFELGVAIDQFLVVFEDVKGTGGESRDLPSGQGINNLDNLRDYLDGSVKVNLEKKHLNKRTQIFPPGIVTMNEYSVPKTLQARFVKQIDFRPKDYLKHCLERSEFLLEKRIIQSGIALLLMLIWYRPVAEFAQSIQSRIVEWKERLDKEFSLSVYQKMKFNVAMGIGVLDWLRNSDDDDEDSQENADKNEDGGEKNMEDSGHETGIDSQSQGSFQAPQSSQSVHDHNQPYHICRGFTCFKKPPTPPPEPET
T2 sequence (P30665 whole entry): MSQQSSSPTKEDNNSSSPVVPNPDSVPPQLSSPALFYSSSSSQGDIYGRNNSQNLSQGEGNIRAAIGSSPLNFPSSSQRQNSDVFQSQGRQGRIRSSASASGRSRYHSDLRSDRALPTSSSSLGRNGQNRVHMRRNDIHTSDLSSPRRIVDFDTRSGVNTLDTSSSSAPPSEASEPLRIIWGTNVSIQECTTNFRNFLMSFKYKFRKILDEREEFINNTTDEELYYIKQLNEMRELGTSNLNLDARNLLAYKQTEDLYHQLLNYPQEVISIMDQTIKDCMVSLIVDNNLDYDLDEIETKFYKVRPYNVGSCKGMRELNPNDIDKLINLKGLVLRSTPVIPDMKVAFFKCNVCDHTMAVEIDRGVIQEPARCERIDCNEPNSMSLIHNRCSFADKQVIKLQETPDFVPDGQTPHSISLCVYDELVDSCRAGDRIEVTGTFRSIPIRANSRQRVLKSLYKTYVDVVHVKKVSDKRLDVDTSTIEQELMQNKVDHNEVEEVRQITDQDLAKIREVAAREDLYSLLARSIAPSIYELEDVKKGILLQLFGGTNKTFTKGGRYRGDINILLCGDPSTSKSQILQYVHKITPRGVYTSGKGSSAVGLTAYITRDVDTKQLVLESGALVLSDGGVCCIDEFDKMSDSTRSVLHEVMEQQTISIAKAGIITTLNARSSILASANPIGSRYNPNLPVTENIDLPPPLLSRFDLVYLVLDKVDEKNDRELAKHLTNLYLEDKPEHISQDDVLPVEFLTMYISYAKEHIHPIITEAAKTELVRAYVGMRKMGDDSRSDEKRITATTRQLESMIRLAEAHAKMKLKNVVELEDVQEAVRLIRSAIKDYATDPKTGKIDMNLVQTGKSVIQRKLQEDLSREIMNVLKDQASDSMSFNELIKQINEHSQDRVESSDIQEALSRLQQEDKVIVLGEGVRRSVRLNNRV
T2 sequence (P53091 whole entry): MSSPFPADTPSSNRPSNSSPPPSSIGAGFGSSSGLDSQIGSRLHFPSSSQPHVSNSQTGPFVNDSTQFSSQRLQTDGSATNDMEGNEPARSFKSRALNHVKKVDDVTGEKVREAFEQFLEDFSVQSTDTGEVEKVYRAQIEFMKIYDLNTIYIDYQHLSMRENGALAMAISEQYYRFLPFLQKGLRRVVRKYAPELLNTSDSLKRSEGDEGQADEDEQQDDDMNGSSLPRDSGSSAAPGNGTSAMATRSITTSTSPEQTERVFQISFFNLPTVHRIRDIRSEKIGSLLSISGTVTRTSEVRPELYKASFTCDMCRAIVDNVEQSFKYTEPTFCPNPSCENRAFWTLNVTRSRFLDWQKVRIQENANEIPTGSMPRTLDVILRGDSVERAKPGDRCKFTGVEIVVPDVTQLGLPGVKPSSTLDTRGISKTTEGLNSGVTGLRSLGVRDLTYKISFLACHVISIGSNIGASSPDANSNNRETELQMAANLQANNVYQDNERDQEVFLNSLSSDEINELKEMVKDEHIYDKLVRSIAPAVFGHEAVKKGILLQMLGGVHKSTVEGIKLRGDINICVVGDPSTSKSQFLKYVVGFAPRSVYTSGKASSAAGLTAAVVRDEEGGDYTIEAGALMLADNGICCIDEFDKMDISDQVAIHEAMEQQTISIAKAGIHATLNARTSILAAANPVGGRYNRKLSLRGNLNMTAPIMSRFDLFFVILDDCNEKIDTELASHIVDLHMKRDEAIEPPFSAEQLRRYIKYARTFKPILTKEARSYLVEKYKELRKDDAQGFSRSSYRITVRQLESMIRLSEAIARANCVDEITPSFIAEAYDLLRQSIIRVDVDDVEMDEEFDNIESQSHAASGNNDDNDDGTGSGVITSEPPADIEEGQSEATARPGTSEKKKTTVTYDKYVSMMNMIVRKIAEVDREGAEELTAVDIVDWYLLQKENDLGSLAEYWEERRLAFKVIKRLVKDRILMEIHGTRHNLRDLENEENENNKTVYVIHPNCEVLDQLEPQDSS
T2 sequence (P38132 whole entry): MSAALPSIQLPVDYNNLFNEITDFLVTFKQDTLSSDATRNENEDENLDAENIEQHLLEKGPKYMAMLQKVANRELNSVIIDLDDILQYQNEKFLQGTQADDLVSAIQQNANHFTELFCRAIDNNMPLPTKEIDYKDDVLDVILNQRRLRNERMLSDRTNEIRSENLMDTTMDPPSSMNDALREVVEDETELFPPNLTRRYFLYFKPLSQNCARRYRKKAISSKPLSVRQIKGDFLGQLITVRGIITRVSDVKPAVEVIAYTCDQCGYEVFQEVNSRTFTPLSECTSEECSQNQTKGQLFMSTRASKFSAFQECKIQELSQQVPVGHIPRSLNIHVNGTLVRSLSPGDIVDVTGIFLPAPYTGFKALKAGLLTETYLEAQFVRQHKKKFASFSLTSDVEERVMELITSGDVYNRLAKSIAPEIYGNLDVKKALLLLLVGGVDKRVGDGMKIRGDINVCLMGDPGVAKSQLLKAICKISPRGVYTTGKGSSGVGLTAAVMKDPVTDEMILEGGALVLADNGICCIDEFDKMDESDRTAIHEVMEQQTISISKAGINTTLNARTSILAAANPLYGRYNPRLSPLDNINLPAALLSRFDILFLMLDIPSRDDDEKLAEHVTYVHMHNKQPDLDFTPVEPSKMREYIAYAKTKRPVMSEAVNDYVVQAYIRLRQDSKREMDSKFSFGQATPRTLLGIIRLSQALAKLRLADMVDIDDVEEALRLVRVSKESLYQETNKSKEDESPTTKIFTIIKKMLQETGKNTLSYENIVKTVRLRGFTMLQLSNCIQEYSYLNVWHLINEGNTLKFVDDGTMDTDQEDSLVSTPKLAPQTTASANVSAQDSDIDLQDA
T4 sequence (P03070 whole entry): as the sequence (P03070 whole entry, looked up) above

| SMILES | IC50 [5, 15] | IC50 ([6]; value (95% CI)) | IC50 ([7]; Homo sapiens) | DNA intercalation [8, 16] | inhibition of DnaB helicase [9] | inhibition of T4 gp41 helicase [10] | IC50 [3, 18] | IC50 [4, 19] | other results |
| --- | --- | --- | --- | --- | --- | --- | --- | --- | --- |
| CCN1C(=O)C=CC1=O [NEM, N-ethylmaleimide] | – | – | – | – | – | – | – | – | effect on ssDNA binding of Mcm2-7 [1]: inhibit; effect on ssDNA binding of Mcm467 [2]: inhibit |
| Cc1c(F)c(N2CCC(N)C2)nc2c1c(=O)c(C(=O)O)cn2C1CC1 (stereo not drawn) [compound 125248] | 190 µM | 460 µM | ~10 µM | extensive DNA intercalation | nearly complete inhibition | nearly complete inhibition | – | – | IC50 ([3]; read-out: IC50 Mcm2-7, 100 nM hexamer, inhibitor preincubation, value (95% CI)): 72 µM; IC50 ([4]; IC50 Mcm467, DNA unwinding, 100 nM hexamer, inhibitor preincubation, value (95% CI)): 130 µM; IC50 [7]: 14 µM; DNA intercalation [8, 17]: significant DNA intercalation |
| NC1CCN(c2ccc3c(=O)c(C(=O)O)cn(-c4ccc(O)cc4)c3c2Cl)C1 (stereo not drawn) [compound 268973] | 476 µM | 160 µM | – | extensive DNA intercalation | nearly complete inhibition | nearly complete inhibition | 188 µM | 272 µM | effect on ATP hydrolysis of Mcm2-7 [11]: modest inhibition; effect on ATP hydrolysis of Mcm467 [12]: modest inhibition; effect on ATP hydrolysis of TAg [13]: modest inhibition; DNA intercalation [8, 17]: significant DNA intercalation |
| CSc1c(N2CCC(C(C)N)C2)ccc2c(=O)c(C(=O)O)cn(C3CC3)c12 (stereo not drawn) [compound 314850] | > 1000 µM | 520 µM | 500 to 700 µM | little or no intercalation | – | – | 261 µM | 707 µM | IC50 [7]: 340 µM; effect on ATP hydrolysis of Mcm2-7 [11]: essentially no inhibition; effect on ATP hydrolysis of Mcm467 [12]: essentially no inhibition; effect on ATP hydrolysis of TAg [13]: essentially no inhibition; inhibition of SsoMcm helicase [14]: effectively inhibited |
| Cc1ccc(-c2cc(-c3ccccc3)nc(N3CCNCC3)n2)cc1 [compound 388612] | 126 µM | – | – | extensive DNA intercalation | – | – | 396 µM | 345 µM | IC50 ([6]; insufficient data for 95% CI): < 0.01 µM |
| c1ccc(Nc2nc(Nc3ccccc3)nc(N3CCNCC3)n2)cc1 [compound 924384] | 70 µM | 93 µM | ~10 µM | extensive DNA intercalation | nearly complete inhibition | nearly complete inhibition | 115 µM | 246 µM | – |
| CCn1cc(C(=O)O)c(=O)c2ccc(C)nc21 [naladixic acid, reference compound] | – | – | – | – | – | – | – | – | effect on Mcm2-7 helicase activity [3, 20]: essentially no effect; effect on Mcm467 helicase activity [4, 20]: essentially no effect; effect on TAg helicase activity [5, 20]: essentially no effect |
| CC1COc2c(N3CCN(C)CC3)c(F)cc3c(=O)c(C(=O)O)cn1c23 (stereo not drawn) [ofloxacin, reference compound] | – | – | – | – | – | – | – | – | IC50 ([3]; 100 nM complex, read-out: IC50 Mcm2-7 helicase activity): 4170 µM; IC50 ([4]; DNA unwinding, 100 nM complex, read-out: IC50 Mcm467 helicase activity): 5290 µM; IC50 ([5]; 100 nM complex, read-out: IC50 TAg helicase activity): > 20000 µM; growth response of ∆erg6 yeast ([6]; Figure 4A): demonstrable growth sensitivity |
